Measurements as given in patent US20030125337A1, “Inhibitors of multidrug transporters” (priority 1998, published 2003).
≈ marks a conversion by molar mass, not a printed value. Like-named read-outs stand apart in the source and are kept apart here.

Legend:
NorA [1] = molecular target: T1, NorA (Staphylococcus aureus, UniProt P0A0J7); assay type: cell-based; conditions: FIG. 8; reserpine 20 μg/ml, INF 55, 240, 271, 392 5 μg/ml, INF 277 10 μg/ml
T1 construct: expressed in transfected cells; host or cells: Bacillus subtilis strain NA
Method: Effect of the lead inhibitors on ethidium efflux from NA cells. NA cells were loaded with ethidium in the presence of reserpine and allowed to efflux in the absence of reserpine (A) in the presence of 20 μg/ml reserpine (B), 5 μg/ml of INF 55 (C), 5 μg/ml of INF 240 (D), 5 μg/ml of INF 271 (E), 5 μg/ml of INF 392 (F), or 10 μg/ml of INF 277 (G). Fluorescence intensity is proportional to the amount of ethidium remaining inside the cells.
NA cells overexpressing NorA were loaded with ethidium bromide in the presence of reserpine (20 μg/ml). After washing, cells were placed in a fluorimeter cuvette with fresh medium.

[2] = test system: wild type S. aureus SA1199; assay type: cell-based; conditions: INF inhibitors 5 μg/ml, reserpine 20 μg/ml; for Fold inhibition of emergence of resistance: ciprofloxacin resistance, SA1199
Method: The effect of the inhibitors on the rate of emergence of in vitro selected single-step ciprofloxacin resistant mutants of wild type S. aureus SA1199 (Kaatz et al., 1990) was determined.
Ciprofloxacin resistance in first step in vitro selected mutants of S. aureus is predominantly due to specific point mutations in the targets of this drug, topoisomerase IV and gyrase (Cambau and Gutman, 1993; Ferrero et al., 1994).

S. aureus (SA1199B) = assay: Minimal inhibitor concentration decreasing the ciprofloxacin MIC two fold, S. aureus SA1199B; assay type: cell-based; conditions: Staphylococcus aureus, read-out: Effectivity IC50* S. Aureus
S. pneumoniae = conditions: cited from earlier work
E. faecalis = conditions: cited from earlier work
S. pneumoniae (SPC2A) = assay: Minimal inhibitor concentration decreasing the ciprofloxacin MIC two fold, S. pneumoniae SPC2A; assay type: cell-based; conditions: Streptococcus pneumoniae; SPC2A; minimal concentration required to decrease the MIC for ciprofloxacin by two fold; N.A. = not active at 5 μg/ml; read-out: IC50 S. Pneumoniae
NorA [3] = molecular target: T1, NorA; conditions: reference for CoMFA predictions; cited from earlier work
B. subtilis = conditions: inhibition of the Bmr transporter; cited from earlier work
[4] = test system: NorA-overexpressing S. aureus, SA1199B; assay: Frequency of emergence of SA1199B mutants insensitive to the NorA inhibitor (adaptation of NorA); assay type: cell-based; conditions: mutagenized SA1199B, ethidium bromide 10 μg/ml, INF inhibitors 5 μg/ml, reserpine 20 μg/ml, 48 h
Method: To evaluate the possibility of such mutations arising in the NorA transporter the inventors determined the frequency of emergence of mutants of NorA-overexpressing S. aureus, SA1199B, that retained resistance to a NorA substrate in spite of the presence of a NorA inhibitor. […] After a 48 h incubation period the number of colonies on each plate was determined.

[5] = test system: first step mutants of S. pneumoniae (ATCC 49619); conditions: three first step mutants, non-toxic concentration
Bmr = Bmr (Bacillus subtilis, UniProt P33449); conditions: cited from earlier work
wild-type S. aureus = conditions: cited from earlier work
NorA [6] = molecular target: T1, NorA; conditions: cited from earlier work
[7] = S. pneumoniae strain EBR, non-toxic concentrations

T1 sequence (P0A0J7 whole entry): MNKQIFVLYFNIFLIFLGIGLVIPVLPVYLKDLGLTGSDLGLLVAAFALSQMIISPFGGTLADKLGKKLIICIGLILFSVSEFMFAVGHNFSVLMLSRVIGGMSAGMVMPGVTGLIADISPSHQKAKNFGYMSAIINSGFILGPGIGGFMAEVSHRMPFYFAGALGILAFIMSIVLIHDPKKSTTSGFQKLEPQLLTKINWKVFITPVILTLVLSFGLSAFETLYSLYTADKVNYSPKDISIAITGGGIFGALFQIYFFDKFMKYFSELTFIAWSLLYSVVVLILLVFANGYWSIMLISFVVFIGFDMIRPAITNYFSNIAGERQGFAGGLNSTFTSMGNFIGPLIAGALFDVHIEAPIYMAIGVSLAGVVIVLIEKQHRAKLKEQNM
Chain of Bmr (P33449 whole entry): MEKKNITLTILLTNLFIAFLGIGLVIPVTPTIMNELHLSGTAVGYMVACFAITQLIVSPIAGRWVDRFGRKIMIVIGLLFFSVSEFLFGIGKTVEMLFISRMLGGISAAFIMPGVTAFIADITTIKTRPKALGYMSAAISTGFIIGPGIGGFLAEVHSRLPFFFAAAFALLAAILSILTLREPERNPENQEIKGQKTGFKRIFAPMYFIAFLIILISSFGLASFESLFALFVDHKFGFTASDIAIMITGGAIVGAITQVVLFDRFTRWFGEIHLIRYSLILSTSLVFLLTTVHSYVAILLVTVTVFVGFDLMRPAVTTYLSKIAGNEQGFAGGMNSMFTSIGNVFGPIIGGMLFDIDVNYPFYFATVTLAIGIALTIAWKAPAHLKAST

COC(=O)[C@H]1[C@H]2C[C@@H]3c4[nH]c5cc(OC)ccc5c4CCN3C[C@H]2C[C@@H](OC(=O)c2cc(OC)c(OC)c(OC)c2)[C@@H]1OC [Reserpine, reserpine]
inhibition of the decrease in fluorescence due to NorA-mediated ethidium efflux (NorA [1]): dramatically inhibited
Frequency of emergence of variants resistant to two fold the MIC of ciprofloxacin, Spontaneous ([2]; SA1199, ciprofloxacin 1 μg/ml, 48 h): <5 × 10^−11
Frequency of emergence of variants resistant to two fold the MIC of ciprofloxacin, Mutagenized ([2]; SA1199 mutagenized with ethylmethane sulfonate): <2.5 × 10^−10
Fold inhibition of emergence of resistance [2]: >50
Fold inhibition of emergence of resistance ([2]; listed as reserpine): more than one order of magnitude
IC50 (S. aureus (SA1199B)): 6.25 µg/mL (≈ 10.3 µM)
inhibition of ethidium efflux (S. pneumoniae; [7]): inhibited ethidium efflux
reversal of resistance to ethidium and fluoroquinolones (S. pneumoniae; [7]): reversed the resistance
potentiation of susceptibility to ethidium and fluoroquinolones (S. pneumoniae; wild type S. pneumoniae): two to three fold
factor of reduction of the MIC of norfloxacin and ciprofloxacin (S. pneumoniae; wild-type S. pneumoniae): 2-3
increase in susceptibility to fluoroquinolones (E. faecalis): two-fold increase
IC50 (S. pneumoniae (SPC2A)): 5 µg/mL (≈ 8.21 µM)
concentration at which known to be active (NorA [3]): 5 µg/mL
reduction of the MIC of norfloxacin (B. subtilis): by a factor of five
Frequency of adaptation of NorA (mutants insensitive to the inhibitor) [4]: approximately 2×10^−8
reversal of resistance to ciprofloxacin and ethidium bromide [5]: reversed the resistance
inhibition of drug efflux mediated by Bmr (Bmr): completely inhibited
reduction of the MIC of norfloxacin (wild-type S. aureus): at least four-fold
inhibition of drug efflux mediated by NorA (NorA [6]): completely inhibited
